Patent US10955415B2, “CD247 as a biomarker for assessing the effect of chemotherapeutic and biological drugs” (YISSUM RESEARCH DEVELOPMENT COMPANY OF THE HEBREW …, priority 2011, dated 2021)
Entries after “also recorded” stand apart in the source; their conditions may differ.

Experiments:
[1] = tested on: colorectal cancer (CRC); assay: Survival, colon structure and tumor loads of CRC-bearing mice; assay type: in vivo
Protocol: Survival of mice CRC, CRC-5-FU or CRC-5FU/CPT-11 treatment is shown as Kaplan-Meyer curve (n=20). Time points of AOM injections and the period of DSS addition are represented by gray arrows and lines, respectively. Start point of chemotherapy treatment and continual boosts are shown as black arrows.
The mouse model for CRC was established by two repeated injections of azoxymethane (AOM) (Sigma) in intervals of two weeks followed by two weekly administrations of DSS (Sigma) that was added to drinking water every two weeks for duration of about seven days. In order to test the influence of chemotherapeutic drugs on the induced-chronic inflammatory environment in a CRC model, after the second DSS treatment mice were randomized into three groups (n=10 mice) as follows: CRC control group, CRC and 5-FU i.p inoculated group and CRC and CPT-11 i.p inoculated group. Mice were sacrificed at week +11, three weeks after the second DSS treatment.
It important to note that in each of the experiments performed (presented in FIG. 21 and FIG. 22), pathological macroscopic and microscopic tests have been performed on the structure of the colon and counts were made of the tumor loads.

[2] = tested on: CD4+Foxp3+ Treg cells; set-up: species or system mice; details: mouse, in vivo
[3] = tested on: MDSCs; assay: MDSC infiltration in colon lamina propria and epithel, CRC mouse model; assay type: in vivo; details: CRC-bearing mice, tumor tissue
[4] = tested on: CD3ε chain; set-up: species or system mice; details: mouse, in vivo
[5] = tested on: Thy1.2+ (CD90+) T-cells; assay: T-cell proliferation of CFSE-labeled splenocytes activated with anti-CD3 and anti-CD28; assay type: in vivo; details: splenocytes of BCG-inflamed treated mice, anti-CD3/anti-CD28 activation
Protocol: FIG. 2C. Splenocytes from untreated, inflamed, and inflamed-treated i.v. with irinotecan were labeled with CFSE and activated with anti-CD3 and anti-CD28 antibodies or left non-activated. The proliferative response was assessed by monitoring cell divisions of gated CFSE-labeled Thy1.2+ (CD90+) cells. Data was calculated by percent of proliferating cells compared to steady state of non-activated of each group.
(§1) FIG. 18A-18E. Splenocytes and PBLs from mice untreated (naïve), inflamed, or inflamed and treated with 5-FU or CPT-11 were fixed, permeabilized, and double stained for the expression of CD247 (ζ-chain) (FIGS. 18A, 18B) and CD3ε-chain (FIGS. 18D, 18E), as shown by mean fluorescence intensity (MFI), measured in gated CD3^+ cells. FIG. 18C: Splenocytes from mice, naïve, inflamed and inflamed treated with 5-FU or CPT-11, were labeled with CFSE and activated with anti-CD3 and anti-CD28 antibodies or left non-activated. The proliferative response was assessed by monitoring cell divisions of gated CFSE-labeled Thy1.2+ (CD90+) T-cells. The percent of proliferating cells was calculated and compared to steady state levels of non-activated cells per each group. Data from three independent experiments is presented (n=3). Statistical analyses using t test indicated significant differences at 95%. Means and SEM are shown. *, P<0.05; **, P<0.01. FIG. 18F-18I. For the detection of myeloid differentiation state, splenocytes from each group were stained for (18F) DC11b^+CD11c^+ cells (representing DCs), (18G) DC11b^+F4/80^+ cells (representing monocytes), (18H) CD11c^+MHCII^+CD80^+ cells (representing fully differentiated […] as antigen presenting cells) and (18I) F4/80^+MHCII^+CD80^+ cells (representing fully differentiated […] as antigen presenting cells). Data from three independent experiments (n=4) is presented. Statistical analyses using t test indicated significant differences at 95%. Means and SEM are shown. *, P<0.05; **, P<0.01; ***, P<0.001. Abbreviations: Nor. (normal), Rel. (relative), Inf. (inflamed), ce. Pro. (cell proliferation)

[6] = tested on: CD11b+CD11c+ and CD11b+F4/80+ cells; assay: Myeloid differentiation state in spleen (DCs, macrophages, APC maturation); assay type: in vivo; details: BCG-inflamed mice
Source text: as §1
(§2) Isolated splenocytes and peripheral blood leukocytes (PBLs) were treated with erythrocyte lysis buffer and washed in PBS. Cells were pre-coated with anti-CD16/CD32 (Biolegend) for FcR blockage. For surface staining, cells were incubated for 30 min at 4° C. with FITC-labeled anti-Gr1, anti-CD11c, and anti-CD4; PE-labeled anti F4/80, anti-CD3ε, anti-CD45R/B220, and anti-mNKp46; and biotinylated anti-CD11b and anti-CD8 that were detected with streptavidin-Cy5 (Biolegend and eBioscience). Intracellular staining of CD247 cells was performed by subjecting the cells to fixation with paraformaldehyde (1%) for 20 min at 4° C., followed by washing and permeabilization for 10 min with saponin detergent (0.1%) at room temperature (RT). Cells were then washed and incubated with FITC-labeled monoclonal anti-CD247 (H146) (Abcam), or biotinylated monoclonal anti-CD247 (H146), which were subsequently detected with streptavidin-Cy5. FoxP3 staining was performed according to the manufacturer's instructions. Samples were analyzed using FACSCalibur with Cell Quest software (BD).

[7] = tested on: CD247; assay: CD247 expression in T cells infiltrating the colon, CRC mouse model; assay type: in vivo; details: CRC-bearing mice
[8] = tested on: CD247 in NK (NCR1+) cells; assay: CD247 expression in gated NK (NCR1+) cells from spleen; assay type: in vivo; details: spleen of BCG-inflamed mice, monotherapy
Protocol: FIG. 2E. CD247 expression was measured gating on NK (NCR1+) cells derived from the spleens of each group. Data from three independent experiments is presented (n=4). Statistical analyses using t test indicated significant differences at 95% Cl. Means and SEM are shown. *, P<0.05.
as §2

[9] = tested on: TNFα, IL-6, IFNγ; assay: Real Time PCR of inflammatory cytokines in MDSCs and total splenocytes; assay type: in vivo, mice; details: relative to inflamed untreated; for mRNA levels of TNFα and IL-6: spleen-derived MDSCs and total splenocytes
[10] = tested on: S100A8/9; assay: S100A8/9 mRNA and S100A9 immunoblot in purified MDSCs and total spleen; assay type: in vivo; details: purified MDSCs and total splenic population, BCG-inflamed mice; for S100A9 protein levels: immunoblot
Source text: FIG. 17A. Purified MDSCs from spleens (n=4); and FIG. 17B. A total spleen population was used to analyze mRNA levels of S100A8/9 (left), and to perform immunoblotting of S100A9 (right) following the course of chronic inflammation alone, chronically inflamed mice treated with 5-FU or CPT11 (n=4), α-Tubulin levels served as a control.
Analyses used either the splenocyte population or peripheral blood as mentioned above. Cells (5×10^7/ml, or 1×10^6/ml) were lysed with Tris-NaCl buffer containing 0.5% Triton X-100 and protease inhibitors for 30 min on ice. Proteins were resolved on 12% SDS-PAGE and subjected to immunoblotting analysis using the following specific antibodies: anti-CD247, antiCD3ε antibodies, anti-S100A9, anti-S100A8, anti-iNOS, anti-ARG1, and anti-αTubulin antibodies. Specific antibodies were detected by incubation with protein A (Amersham), anti-rat or anti-goat antibodies conjugated to horseradish peroxidase (Jackson Immunoresearch), followed by enhanced chemiluminescence and exposure to Kodak X-ray films.
Total RNA was recovered from splenocytes or isolated MDSCs using Tri-Reagent (Sigma) and was subjected to reverse transcription with m-MLV-RT (Invitrogen) and random primers (IDT). Quantitative mRNA expression was analyzed by real-time PCR (ABI 7900), with SYBR green (Invitrogen). RT-PCR primers were designed to recognize an exon-exon boundary in all transcripts.

[11] = tested on: CD247 (ζ-chain); assay: CD247 expression in spleen and PBLs, CRC mouse model; assay type: in vivo; details: CRC (AOM/DSS) mice, vs untreated CRC-bearing mice
Source text: Means and SEM are shown. *, P<0.05; **, P<0.01. […] (normal).

[12] = tested on: MDSCs (Gr1+CD11b+); assay: MDSC accumulation in spleen and PBLs, AOM/DSS colorectal cancer (CRC) mouse model; assay type: in vivo; details: CRC (AOM/DSS) mice, i.p., vs untreated CRC group
Source text: The mouse model for CRC was used as described in Experimental procedures. […] Mice were sacrificed at week +11, three weeks after the second DSS treatment. […] Graphs represent the percent of MDSCs presented within the spleen (FIG. 21A) and PBLs (FIG. 21C). Data from three independent experiments (n=3) is presented. […] Means and SEM are shown. *, P<0.05; **, P<0.01; ***, P<0.001.
The mouse model for CRC was established by two repeated injections of azoxymethane (AOM) (Sigma) in intervals of two weeks followed by two weekly administrations of DSS (Sigma) that was added to drinking water every two weeks for duration of about seven days. […] Mice were sacrificed at week +11, three weeks after the second DSS treatment.

| SMILES | survival of CRC mice (Kaplan-Meyer) [1] | levels of Treg cells (CD4+Foxp3+) in spleen [2] | MDSCs infiltration in lamina propria and colon epithelial tissue [3] | CD3ε expression levels [4] | differentiated myeloid cells in spleen (CD11b+CD11c+ DCs, CD11b+F4/80+ macrophages) [6] | CD247 expression levels in T cells infiltrating the colon [7] | mRNA levels of TNFα and IL-6 [9] | mRNA levels of S100A8/9 [10] | S100A9 protein levels [10] | CD247 expression levels in spleen and blood [11] | MDSC percentage in PBLs [12] | MDSC percentage in spleen [12] | other results |
| --- | --- | --- | --- | --- | --- | --- | --- | --- | --- | --- | --- | --- | --- |
| O=c1[nH]cc(F)c(=O)[nH]1 [5-FU, 5-Fluorouracil] | increased survival | remained unchanged | significantly reduced | rather constant; also recorded: not down regulated | significant turning towards differentiated myeloid population | elevated | no significant changes | significant decrease | decreased amounts | significantly recovered | significant decrease | significant decrease | curable effects on colon structure and tumor loads ([1]; macroscopic and microscopic pathology): observed; proliferative capacity of T cells [5]: tendency of a functional recovery; maturation of antigen presenting cells (CD80 and MHCII expression) [6]: enhanced the maturation; CD247 expression in NK (NCR1+) cells [8]: recovery from immunosuppression; also recorded: almost completely recovered |
| CCc1c2c(nc3ccc(OC(=O)N4CCC(N5CCCCC5)CC4)cc13)-c1cc3c(c(=O)n1C2)COC(=O)[C@]3(O)CC [Irinotecan] | reduced survival rate | remained unchanged | significantly increased | remained unchanged; also recorded: not down regulated | blockage of the myeloid cell differentiation and maturation | Reduced levels | no significant changes | no significant changes | remained high | low as in the case of CRC-bearing, non-treated mice | no changes | significantly increased | proliferative capacity of T cells ([5]; listed as CPT11): impaired proliferative capacity; proliferative capacity of T cells ([5]; listed as CPT-11): significantly diminished; CD247 expression in NK (NCR1+) cells ([8]; listed as CPT11): low CD247 expression; CD247 expression in NK (NCR1+) cells ([8]; listed as CPT-11): remained down-regulated with no further decrease; mRNA level of IFNγ ([9]; MDSCs and total spleen-population): decreased |
